Reference: US9371280B2, “Substituted pyrrolidine-2-carboxamides” (Hoffmann-La Roche Inc., priority 2012, dated 2016)
Structures can show the parent of a compound that is named as a salt. Where two headings read alike, the source gives them in different places.

Target: interaction between p53 and MDM2 proteins (recombinant GST-tagged MDM2) (Homo sapiens, UniProt Q00987)
Test: HTRF assay of inhibition of the p53-MDM2 interaction (GST-MDM2 / biotinylated p53 peptide);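 further: FRET read-out from Eu-labelled anti-GST antibody to streptavidin-APC, with 90 nM N-terminally biotinylated p53 peptide and 160 ng/ml GST-MDM2 in Tris-borate saline containing 1 mM DTT, 384-well format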
Assay type: binding
Details: HTRF, 0.02% BSA, 37° C. 1 h
Protocol: The ability of the compounds to inhibit the interaction between p53 and MDM2 proteins was measured by an HTRF (homogeneous time-resolved fluorescence) assay in which recombinant GST-tagged MDM2 binds to a peptide that resembles the MDM2-interacting region of p53 (Lane et al.). Binding of GST-MDM2 protein and p53-peptide (biotinylated on its N-terminal end) is registered by the FRET (fluorescence resonance energy transfer) between Europium (Eu)-labeled anti-GST antibody and streptavidin-conjugated Allophycocyanin (APC).
Test is performed in black flat-bottom 384-well plates (Costar) in a total volume of 40 uL containing: 90 nM biotinylate peptide, 160 ng/ml GST-MDM2, 20 nM streptavidin-APC (PerkinElmerWallac), 2 nM Eu-labeled anti-GST-antibody (PerkinElmerWallac), 0.02% bovine serum albumin (BSA), 1 mM dithiothreitol (DTT) and 20 mM Tris-borate saline (TBS) buffer as follows: Add 10 uL of GST-MDM2 (640 ng/ml working solution) in reaction buffer to each well. […] Incubate at 37° C. for 1 h.

interaction between p53 and MDM2 proteins (recombinant GST-tagged MDM2), sequence (Q00987 whole entry): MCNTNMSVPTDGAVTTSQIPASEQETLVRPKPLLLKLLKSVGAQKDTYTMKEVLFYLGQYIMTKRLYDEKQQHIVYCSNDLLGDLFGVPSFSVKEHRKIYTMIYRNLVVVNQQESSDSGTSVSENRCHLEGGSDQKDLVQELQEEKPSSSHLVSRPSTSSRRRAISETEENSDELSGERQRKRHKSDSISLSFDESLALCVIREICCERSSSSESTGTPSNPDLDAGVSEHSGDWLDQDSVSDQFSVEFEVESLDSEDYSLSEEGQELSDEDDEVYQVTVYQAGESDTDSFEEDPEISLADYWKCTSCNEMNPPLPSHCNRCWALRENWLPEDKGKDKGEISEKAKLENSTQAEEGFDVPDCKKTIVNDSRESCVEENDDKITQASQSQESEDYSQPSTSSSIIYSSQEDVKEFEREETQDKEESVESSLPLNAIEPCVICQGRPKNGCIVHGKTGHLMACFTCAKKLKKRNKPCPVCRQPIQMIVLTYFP

| IC50 | Compound | IC50 (read-out: IC50 (uM, 0.02% BSA)) |
| --- | --- | --- |
| 0.00675 µM | COc1cc(C(=O)NC(C)CO)ccc1NC(=O)[C@@H]1N[C@@H](CC(C)(C)C)[C@](C#N)(c2ccc(Cl)cc2F)[C@H]1c1cccc(Cl)c1F (mixture of isomers) [Example 14, Rac-(2R,3S,4R,5S)-4-(4-Chloro-2-fluoro-phenyl)-3-(3-chloro-2-fluoro-phenyl)-4-cyano-5-(2,2-dimethyl-propyl)-pyrrolidine-2-carboxylic acid [4-(2-hydroxy-1-methyl-ethylcarbamoyl)-2-methoxy-phenyl]-amide] |  |
| 0.0371 µM | COc1cc(C(=O)OCCOC(=O)[C@@H](C)N)ccc1NC(=O)[C@@H]1N[C@@H](CC(C)(C)C)[C@](C#N)(c2ccc(Cl)cc2F)[C@H]1c1cccc(Cl)c1F [Example 6, 4-{[(2R,3S,4R,5S)-3-(3-Chloro-2-fluoro-phenyl)-4-(4-chloro-2-fluoro-phenyl)-4-cyano-5-(2,2-dimethyl-propyl)-pyrrolidine-2-carbonyl]-amino}-3-methoxy-benzoic acid 2-((R)-2-amino-propionyloxy)-ethyl ester] |  |
| 0.0107 µM | COCCOC(=O)c1ccc(NC(=O)[C@@H]2N[C@@H](CC(C)(C)C)[C@](C#N)(c3ccc(Cl)cc3F)[C@H]2c2cccc(Cl)c2F)c(OC)c1 [Example 10, 2-Methoxyethyl 4-((2R,3S,4R,5S)-3-(3-chloro-2-fluorophenyl)-4-(4-chloro-2-fluorophenyl)-4-cyano-5-neopentylpyrrolidine-2-carboxamido)-3-methoxybenzoate] |  |
| 0.00454 µM | COc1cc(C(=O)OCCOP(=O)(O)O)ccc1NC(=O)[C@@H]1N[C@@H](CC(C)(C)C)[C@](C#N)(c2ccc(Cl)cc2F)[C@H]1c1cccc(Cl)c1F [Example 13, 2-(Phosphonooxy)ethyl 4-((2R,3S,4R,5S)-3-(3-chloro-2-fluorophenyl)-4-(4-chloro-2-fluorophenyl)-4-cyano-5-neopentylpyrrolidine-2-carboxamido)-3-methoxybenzoate, trifluoroacetate salt] |  |
| 0.0501 µM | CCN(CC)CCOC(=O)c1ccc(NC(=O)[C@@H]2N[C@@H](CC(C)(C)C)[C@](C#N)(c3ccc(Cl)cc3F)[C@H]2c2cccc(Cl)c2F)c(OC)c1 [Example 16, 4-{[(2R,3S,4R,5S)-4-(4-Chloro-2-fluoro-phenyl)-3-(3-chloro-2-fluoro-phenyl)-4-cyano-5-(2,2-dimethyl-propyl)-pyrrolidine-2-carbonyl]-amino}-3-methoxy-benzoic acid 2-diethylamino-ethyl ester] |  |
| 0.024 µM | COc1cc(C(=O)OCC2CCN(C)CC2)ccc1NC(=O)[C@@H]1N[C@@H](CC(C)(C)C)[C@](C#N)(c2ccc(Cl)cc2F)[C@H]1c1cccc(Cl)c1F [Example 18, 4-{[(2R,3S,4R,5S)-4-(4-Chloro-2-fluoro-phenyl)-3-(3-chloro-2-fluoro-phenyl)-4-cyano-5-(2,2-dimethyl-propyl)-pyrrolidine-2-carbonyl]-amino}-3-methoxy-benzoic acid 1-methyl-piperidin-4-ylmethyl ester] |  |
| 0.00558 µM | COc1cc(C(=O)OCCN2CCN(C)CC2)ccc1NC(=O)[C@@H]1N[C@@H](CC(C)(C)C)[C@](C#N)(c2ccc(Cl)cc2F)[C@H]1c1cccc(Cl)c1F [Example 19, 4-{[(2R,3S,4R,5S)-4-(4-Chloro-2-fluoro-phenyl)-3-(3-chloro-2-fluoro-phenyl)-4-cyano-5-(2,2-dimethyl-propyl)-pyrrolidine-2-carbonyl]-amino}-3-methoxy-benzoic acid 2-(4-methyl-piperazin-1-yl)-ethyl ester] |  |
| 0.00654 µM | COc1cc(C(=O)On2nnc3cccnc32)ccc1NC(=O)[C@@H]1N[C@@H](CC(C)(C)C)[C@](C#N)(c2ccc(Cl)cc2F)[C@H]1c1cccc(Cl)c1F [Example 20, 4-{[(2R,3S,4R,5S)-4-(4-Chloro-2-fluoro-phenyl)-3-(3-chloro-2-fluoro-phenyl)-4-cyano-5-(2,2-dimethyl-propyl)-pyrrolidine-2-carbonyl]-amino}-3-methoxy-benzoic acid [1,2,3]triazolo[4,5-b]pyridin-3-yl ester] |  |
| 0.015 µM | COc1cc(C(=O)OCCN2CCOCC2)ccc1NC(=O)[C@@H]1N[C@@H](CC(C)(C)C)[C@](C#N)(c2ccc(Cl)cc2F)[C@H]1c1cccc(Cl)c1F [Example 22, 4-{[(2R,3S,4R,5S)-4-(4-Chloro-2-fluoro-phenyl)-3-(3-chloro-2-fluoro-phenyl)-4-cyano-5-(2,2-dimethyl-propyl)-pyrrolidine-2-carbonyl]-amino}-3-methoxy-benzoic acid 2-morpholin-4-yl-ethyl ester] |  |
| 0.00934 µM | CCN(CC)CCNC(=O)c1ccc(NC(=O)[C@@H]2N[C@@H](CC(C)(C)C)[C@](C#N)(c3ccc(Cl)cc3F)[C@H]2c2cccc(Cl)c2F)c(OC)c1 [Example 23, (2R,3S,4R,5S)-4-(4-Chloro-2-fluoro-phenyl)-3-(3-chloro-2-fluoro-phenyl)-4-cyano-5-(2,2-dimethyl-propyl)-pyrrolidine-2-carboxylic acid [4-(2-diethylamino-ethylcarbamoyl)-2-methoxy-phenyl]-amide, hydrochloride] |  |

The remaining lines, values behind:

| Compound | IC50 | IC50 (read-out: IC50 (uM, 0.02% BSA)) |
| --- | --- | --- |
| 4-{[(2R,3S,4R,5S)-4-(4-Chloro-2-fluoro-phenyl)-3-(3-chloro-2-fluoro-phenyl)-4-cyano-5-(2,2-dimethyl-propyl)-pyrrolidine-2-carbonyl]-amino}-3-methoxy-benzoic acid, dodecaethylene glycol ester [Example 43] |  | 0.0062 µM |
| 4-{[(2R,3S,4R,5S)-4-(4-Chloro-2-fluoro-phenyl)-3-(3-chloro-2-fluoro-phenyl)-4-cyano-5-(2,2-dimethyl-propyl)-pyrrolidine-2-carbonyl]-amino}-3-methoxy-benzoic acid, polyethylene glycol-200 ester, trifluoroacetate salt [Example 45] |  | 0.0105 µM |
| 4-{[(2R,3S,4R,5S)-4-(4-Chloro-2-fluoro-phenyl)-3-(3-chloro-2-fluoro-phenyl)-4-cyano-5-(2,2-dimethyl-propyl)-pyrrolidine-2-carbonyl]-amino}-3-methoxy-benzoic acid, polyethylene glycol-600 ester, trifluoroacetate salt [Example 44] |  | 0.0113 µM |
| COc1cc(C(=O)OCCO)ccc1NC(=O)[C@@H]1N[C@@H](CC(C)(C)C)[C@](C#N)(c2ccc(Cl)cc2F)[C@H]1c1cccc(Cl)c1F [Example 1, 2-Hydroxyethyl 4-((2R,3S,4R,5S)-3-(3-chloro-2-fluorophenyl)-4-(4-chloro-2-fluorophenyl)-4-cyano-5-neopentylpyrrolidine-2-carboxamido)-3-methoxybenzoate] | 0.0111 µM |  |
| COc1cc(C(=O)OCCOC(=O)[C@H](C)N)ccc1NC(=O)[C@@H]1N[C@@H](CC(C)(C)C)[C@](C#N)(c2ccc(Cl)cc2F)[C@H]1c1cccc(Cl)c1F [Example 4, 4-{[(2R,3S,4R,5S)-3-(3-Chloro-2-fluoro-phenyl)-4-(4-chloro-2-fluoro-phenyl)-4-cyano-5-(2,2-dimethyl-propyl)-pyrrolidine-2-carbonyl]-amino}-3-methoxy-benzoic acid 2-((S)-2-amino-propionyloxy)-ethyl ester] | 0.00984 µM |  |
| COc1cc(C(=O)OCCN(C)C)ccc1NC(=O)[C@@H]1N[C@@H](CC(C)(C)C)[C@](C#N)(c2ccc(Cl)cc2F)[C@H]1c1cccc(Cl)c1F [Example 7, 2-(Dimethylamino)ethyl 4-((2R,3S,4R,5S)-3-(3-chloro-2-fluorophenyl)-4-(4-chloro-2-fluorophenyl)-4-cyano-5-neopentylpyrrolidine-2-carboxamido)-3-methoxybenzoate] | 0.0146 µM |  |
| COc1cc(C(=O)OCC2COC(C)(C)O2)ccc1NC(=O)[C@@H]1N[C@@H](CC(C)(C)C)[C@](C#N)(c2ccc(Cl)cc2F)[C@H]1c1cccc(Cl)c1F (stereo partly drawn) [Example 8, (2,2-Dimethyl-1,3-dioxolan-4-yl)methyl 4-((2R,3S,4R,5S)-3-(3-chloro-2-fluorophenyl)-4-(4-chloro-2-fluorophenyl)-4-cyano-5-neopentylpyrrolidine-2-carboxamido)-3-methoxybenzoate] | 0.00957 µM |  |
| COc1cc(C(=O)OCC(CO)CO)ccc1NC(=O)[C@@H]1N[C@@H](CC(C)(C)C)[C@](C#N)(c2ccc(Cl)cc2F)[C@H]1c1cccc(Cl)c1F [Example 9, 3-Hydroxy-2-(hydroxymethyl)propyl 4-((2R,3S,4R,5S)-3-(3-chloro-2-fluorophenyl)-4-(4-chloro-2-fluorophenyl)-4-cyano-5-neopentylpyrrolidine-2-carboxamido)-3-methoxybenzoate] | 0.012 µM |  |
| COc1cc(C(=O)OCCI)ccc1NC(=O)[C@@H]1N[C@@H](CC(C)(C)C)[C@](C#N)(c2ccc(Cl)cc2F)[C@H]1c1cccc(Cl)c1F [Example 11, 2-Iodoethyl 4-((2R,3S,4R,5S)-3-(3-chloro-2-fluorophenyl)-4-(4-chloro-2-fluorophenyl)-4-cyano-5-neopentylpyrrolidine-2-carboxamido)-3-methoxybenzoate] | 0.0117 µM |  |
| COc1cc(C(=O)OCCOP(=O)(OC(C)(C)C)OC(C)(C)C)ccc1NC(=O)[C@@H]1N[C@@H](CC(C)(C)C)[C@](C#N)(c2ccc(Cl)cc2F)[C@H]1c1cccc(Cl)c1F [Example 12, 2-(Di-tert-butoxyphosphoryloxy)ethyl 4-((2R,3S,4R,5S)-3-(3-chloro-2-fluorophenyl)-4-(4-chloro-2-fluorophenyl)-4-cyano-5-neopentylpyrrolidine-2-carboxamido)-3-methoxybenzoate] | 0.00959 µM |  |
| COc1cc(C(=O)OC2CCN(C)CC2)ccc1NC(=O)[C@@H]1N[C@@H](CC(C)(C)C)[C@](C#N)(c2ccc(Cl)cc2F)[C@H]1c1cccc(Cl)c1F [Example 17, 4-{[(2R,3S,4R,5S)-4-(4-Chloro-2-fluoro-phenyl)-3-(3-chloro-2-fluoro-phenyl)-4-cyano-5-(2,2-dimethyl-propyl)-pyrrolidine-2-carbonyl]-amino}-3-methoxy-benzoic acid 1-methyl-piperidin-4-yl ester] | 0.0115 µM |  |
| COc1cc(C(=O)OC(C)CN2CCOCC2)ccc1NC(=O)[C@@H]1N[C@@H](CC(C)(C)C)[C@](C#N)(c2ccc(Cl)cc2F)[C@H]1c1cccc(Cl)c1F (stereo partly drawn) [Example 21, 4-{[(2R,3S,4R,5S)-4-(4-Chloro-2-fluoro-phenyl)-3-(3-chloro-2-fluoro-phenyl)-4-cyano-5-(2,2-dimethyl-propyl)-pyrrolidine-2-carbonyl]-amino}-3-methoxy-benzoic acid 1-methyl-2-morpholin-4-yl-ethyl ester] | 0.0137 µM |  |
